Earlier results, collected in patent US20260092327A1, “METHODS OF MONITORING MUTATIONS IN TREATMENT OF COLORECTAL CANCER” (Cardiff Oncology, Inc., priority 2022, published 2026).

Legend:
[1] = tested on: advanced/metastatic solid tumors
[2] = tested on: cell lines from solid and hematologic tumors; conditions: large number of cell lines
[3] = tested on: HT29 human colon adenocarcinoma xenografts; conditions: compared to each agent alone
[4] = target: PLK1 (Homo sapiens, UniProt P53350); conditions: among a panel of 296 kinases, including other PLK members
PLK1, sequence (P53350 whole entry): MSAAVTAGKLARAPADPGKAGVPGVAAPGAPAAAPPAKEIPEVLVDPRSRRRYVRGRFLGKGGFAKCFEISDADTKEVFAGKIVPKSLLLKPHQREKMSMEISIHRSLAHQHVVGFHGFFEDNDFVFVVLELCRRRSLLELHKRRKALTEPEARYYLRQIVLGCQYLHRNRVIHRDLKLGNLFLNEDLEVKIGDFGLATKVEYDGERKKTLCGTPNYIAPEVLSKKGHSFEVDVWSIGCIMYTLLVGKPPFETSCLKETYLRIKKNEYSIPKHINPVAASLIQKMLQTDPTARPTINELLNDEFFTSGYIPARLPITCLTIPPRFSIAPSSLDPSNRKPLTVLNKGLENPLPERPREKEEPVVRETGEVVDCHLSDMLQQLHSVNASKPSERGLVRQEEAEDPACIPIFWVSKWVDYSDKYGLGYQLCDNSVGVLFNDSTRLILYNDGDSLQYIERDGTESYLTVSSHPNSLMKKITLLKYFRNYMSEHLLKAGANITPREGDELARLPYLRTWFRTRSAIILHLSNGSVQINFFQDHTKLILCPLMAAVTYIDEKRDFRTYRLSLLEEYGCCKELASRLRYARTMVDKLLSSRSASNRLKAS

[5] = tested on: xenograft tumor; conditions: well tolerated doses in mice after oral administration
[6] = tested on: cancer cell lines
[7] = tested on: HCT-116 KRAS-mutant CRC xenograft; conditions: HCT-116 KRAS-mutant CRC xenograft model
[8] = tested on: disseminated model of AML
[9] = adult subjects with advanced/metastatic solid tumors, single agent

recommended phase 2 dose [1, 9]: 24 mg/m^2
specificity for PLK1 [4]: high specificity
half-life (in vivo): about 24 hours
oral bioavailability (rodent and nonrodent species): good oral bioavailability
SMILES: CN1CCN(c2ccc(OC(F)(F)F)c(Nc3ncc4c(n3)-c3c(c(C(N)=O)nn3CCO)CC4)c2)CC1 [Onvansertib, 1-(2-hydroxyethyl)-8-{[5-(4-methylpiperazin-1-yl)-2-(trifluoromethoxy)phenyl]amino}-4,5-dihydro-1H-pyrazolo[4,3-h]quinazoline-3-carboxamide]
evaluable patients with stable disease [1, 9]: 5 of 16
primary dose-limiting toxicities ([1]; patients with advanced/metastatic solid tumors): neutropenia and thrombocytopenia
recovery of hematologic toxicities ([1]; toxicities reversible): ≤ 3 weeks
potency in proliferation assays [2]: low nanomolar activity
tumor regression in combination with irinotecan [3]: enhanced tumor regression
xenograft tumor growth [5]: inhibits xenograft tumor growth
effect on cell cycle [6]: mitotic cell-cycle arrest followed by apoptosis
anti-tumor activity as single agent [7]: potent anti-tumor activity
combination effect with 5-FU [7]: synergy
combination effect with irinotecan [7]: synergy
survival of animals in combination with cytarabine [8]: prolonged survival
